According to patent US8465783B2, “Production of potassium magnesium citrate and its applications” (Gadot Biochemical Industries Ltd., priority 2008, dated 2013):

How the values were obtained:
Format in all cases: physicochemical
[1] = Magnesium retention in soy milk on standing (Mg content in upper layer); settings: for Mg content: 1 liter, after addition during agitation (initial); for Mg content in upper layer: after retention of two days without agitation
Method: 3 g of material obtained in Example 1 were added to 1 liter of Soy milk during agitation.
3 g of material obtained in Example 2 were added to 1 liter of Soy milk during agitation.
Potassium magnesium citrate was prepared according to U.S. Pat. No. 4,985,593. 5.6 g Of the prepared material were added to 1 liter of soy milk and the samples stored refrigerated.
2.2 g of Tri magnesium citrate nona hydrate were added to 1 liter of soy milk during the agitation.
2.2 g of Tri magnesium citrate nona hydrate and 0.2 g of Kappa Carragenan were added to 1 liter of soy milk during the agitation.
2.2 g of Tri magnesium citrate nona hydrate and 2.2 g of tri potassium citrate were added to 1 liter of soy milk during the agitation.

[2] = Magnesium retention in cow milk on standing (Mg content in upper layer)
Method: 3 g of material obtained in Example 1 were added to 1 liter of cow milk during agitation.

[3] = Long-term magnesium retention in UHT-treated soy milk, stored refrigerated (Mg content in upper level)
Method: 120 g of material obtained in Example 1 were added to 40 liters of soy milk, after agitation the mixture passed the well known (in the art) UHT treatment and samples were collected and stored refrigerated.

For Magnesium Potassium Citrate [Example 2], the Mg content [1] was 547 mg/L and the “Mg content in upper layer” value [1] was 545 mg/L.
In the case of `O=C([O-])CC(O)(CC(=O)[O-])C(=O)[O-].O=C([O-])CC(O)(CC(=O)[O-])C(=O)[O-].[K+].[K+].[K+].[K+].[Mg+2]` [Potassium magnesium citrate], the “initial concentration of Mg” value ([1]; 5.6 g per 1 liter) is reported as 373 mg/L and the “Mg content in the upper level” value ([1]; stored refrigerated, after 48 hours of retention) is reported as 372 mg/L.
For Magnesium Potassium Citrate [Example 1], the Mg content [1] was 445 mg/L, the “Mg content in upper layer” value [1] was 444 mg/L and the Mg content ([2]; 1 liter, after addition during agitation (initial)) was 297 mg/L. The “Mg content in upper layer” value ([2]; after retention of two days without agitation) was 289 mg/L, the “Mg content in the upper level” value ([3]; after 1 week) was 471 mg/L and the “Mg content in the upper level” value ([3]; after 2 weeks) was 470 mg/L. For the same compound, the “Mg content in the upper level” value ([3]; after 3 weeks) was 471 mg/L, the “Mg content in the upper level” value ([3]; after 4 weeks) was 470 mg/L and the “Mg content in the upper level” value ([3]; after 5 weeks) was 462 mg/L. The “Mg content in the upper level” value ([3]; after 6 weeks) was 468 mg/L, the “Mg content in the upper level” value ([3]; after 7 weeks) was 470 mg/L and the “Mg content in the upper level” value ([3]; after 8 weeks) was 468 mg/L. The “Mg content in the upper level” value ([3]; after 9 weeks) was 467 mg/L, the “Mg content in the upper level” value ([3]; after 10 weeks) was 465 mg/L and the “Mg content in the upper level” value ([3]; after 11 weeks) was 471 mg/L. For the same compound, the “Mg content in the upper level” value ([3]; after 12 weeks) was 465 mg/L, the “Mg content in the upper level” value ([3]; after 13 weeks) was 466 mg/L and the “Mg content in the upper level” value ([3]; initial) was 468 mg/L.
For `O.O.O.O.O.O.O.O.O.O=C([O-])CC(O)(CC(=O)[O-])C(=O)[O-].O=C([O-])CC(O)(CC(=O)[O-])C(=O)[O-].[Mg+2].[Mg+2].[Mg+2]` [Tri magnesium citrate nona hydrate], the Mg content [1] was 475 mg/L, the “Mg content in upper layer” value [1] was 307 mg/L and the “Magnesium sediment during two days” value ([1]; two days without agitation) was 35 percents.
